Measurements: PubChem BioAssay (NCI)
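Tested at 5 concentrations; 48 h exposure; 96-well plates; endpoints linearly interpolated, else capped at highest concentration. The concentration for full growth arrest is given as TGI.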

Experiments:
Test in all cases: NCI-60 cell line screen, 48 h
SK-OV-3 ovarian = system: SK-OV-3 ovarian
MCF7 breast = system: MCF7 breast
SK-MEL-2 melanoma = system: SK-MEL-2 melanoma
SF-295 CNS = system: SF-295 CNS
HT29 colon = system: HT29 colon
TK-10 renal = system: TK-10 renal
HOP-62 NSCLC = system: HOP-62 NSCLC
786-0 renal = system: 786-0 renal
SNB-75 CNS = system: SNB-75 CNS
HCT-116 colon = system: HCT-116 colon
SF-268 CNS = system: SF-268 CNS
UACC-257 melanoma = system: UACC-257 melanoma
LOX IMVI melanoma = system: LOX IMVI melanoma
A498 renal = system: A498 renal
COLO 205 colon = system: COLO 205 colon
NCI-H460 lung = system: NCI-H460 lung
RXF 393 renal = system: RXF 393 renal
MALME-3M melanoma = system: MALME-3M melanoma

Row | SMILES | TGI (SK-OV-3 ovarian) [µM] | TGI (MCF7 breast) [µM] | TGI (SK-MEL-2 melanoma) [µM] | TGI (SF-295 CNS) [µM] | TGI (HT29 colon) [µM] | TGI (TK-10 renal) [µM] | TGI (HOP-62 NSCLC) [µM] | TGI (786-0 renal) [µM] | TGI (SNB-75 CNS) [µM] | TGI (HCT-116 colon) [µM] | TGI (SF-268 CNS) [µM] | TGI (UACC-257 melanoma) [µM] | TGI (LOX IMVI melanoma) [µM] | TGI (A498 renal) [µM] | TGI (COLO 205 colon) [µM] | TGI (NCI-H460 lung) [µM] | TGI (RXF 393 renal) [µM] | TGI (MALME-3M melanoma) [µM]
1 | CCOC(=O)c1cc(=O)c2ccnc3c2n1CCS3 | > 100 | > 100 | > 100 | > 100 | > 100 | > 100 | > 100 | > 100 | > 100 | > 100 | > 100 | > 100 | > 100 | > 100 | > 100 | > 100 |  | 
2 | COC(=O)[C@H](Cc1ccccc1)NP(=O)(OCCC#N)OCC1OC(n2cc(C)c(=O)[nH]c2=O)CC1N=[N+]=[N-] (stereo partly specified) | > 100 | > 100 | > 100 | > 100 | > 100 | > 100 | > 100 | > 100 | > 100 | > 100 | > 100 | > 100 | > 100 |  | > 100 | > 100 | > 100 | > 100
3 | CCc1cc2c(c3c1CCC3=O)CC1(Cc3ccc(C)cc3C1)C2 (stereo unspecified) | > 100 | > 100 | 67.6 | > 100 | 46.9 | > 100 | > 100 | > 100 |  | 33.1 |  | > 100 | > 100 | > 100 | > 100 |  | > 100 | > 100
4 | O=c1cc(-c2ccccc2)[nH]c2ccc(N3CCOCC3)cc12 | 22.4 | > 93.5 | > 100 | 0.0773 |  | > 100 | 28.2 | 38.1 |  | > 100 | 15.8 | > 100 | > 100 | 73.5 |  | > 100 | 46.5 | > 100
5 | CCOC(=O)c1nnsc1NC(=O)Nc1ccc(Cc2ccc(NC(=O)Nc3snnc3C(=O)OCC)cc2)cc1 | 54.8 | > 100 | > 100 | > 100 | > 100 | > 100 | > 100 | 33.9 | > 100 | > 100 | > 100 | > 100 |  |  | > 100 | > 100 | 70.5 | > 100
6 | C=CCOc1cc(NC(=S)c2ccoc2C)ccc1OC | > 100 | > 100 | > 100 | > 100 | > 100 |  |  | > 100 | > 100 | > 100 | > 100 | > 100 | > 100 | > 100 | > 100 | > 100 |  | > 100
7 | CC(C)Oc1c(O)c2c3c(oc(=O)n3C=CC2c2ccccc2)c1OC(C)C (stereo unspecified) | > 100 | > 100 | 40.1 | 49.1 | 77.4 | 68.2 | > 100 | > 100 | 53.2 | > 100 |  | > 100 | > 100 |  | 60.1 | 35.1 |  | 
8 | O=NN1C(c2ccccc2)CC(=NO)CC1c1ccccc1 (stereo unspecified) | > 100 | > 100 | > 100 | > 100 | > 100 | > 100 | > 100 | > 100 | > 100 | > 100 | > 100 | > 100 | > 100 |  | > 100 | > 100 | > 100 | > 100
9 | OCCOCCN1CCN(CCCN2c3ccccc3Sc3ccc(C(F)(F)F)cc32)CC1 | 33.7 | 28.3 | 34.7 | 25.8 | 7.65 | 24.1 | 33.2 | 31.3 | 13.6 | 20.3 | 33.1 | 18.3 | 15.1 | 22.6 | 3.57 | 22.7 | 9.85 | 
10 | NC(=O)Nc1ccc(S(=O)(=O)Nc2ccc(S(N)(=O)=O)cc2)cc1 |  | > 100 | > 100 | > 100 | > 100 | > 100 | > 100 | > 100 |  | > 100 | 2.59 | > 100 | > 100 | > 100 | > 100 | > 100 | > 100 | > 100
11 | N#C[C@@H](c1nc2ccccc2s1)c1ncccc1[N+](=O)[O-] | > 61.1 | 17.3 | > 31.6 | 40.7 |  | 74.7 | > 57.6 | 17.2 | > 31.6 | 14 | > 31.6 | > 100 | 13.9 | > 31.6 | 8.8 | 14.2 | > 31.6 | 
12 | Cc1ccc2nc3c(=O)[nH]c(=O)nc-3n(C)c2c1C | > 100 | > 100 | > 100 | > 100 | > 100 | > 100 | > 100 | > 100 | > 100 | > 100 | > 100 | > 100 | > 100 |  | > 100 | > 100 | > 100 | > 100
